Several values for one entry are separate records, joined by “and”; a condition that tells them apart may be missing. Identical values can stand only once.

T2 sequence (P19634 whole entry): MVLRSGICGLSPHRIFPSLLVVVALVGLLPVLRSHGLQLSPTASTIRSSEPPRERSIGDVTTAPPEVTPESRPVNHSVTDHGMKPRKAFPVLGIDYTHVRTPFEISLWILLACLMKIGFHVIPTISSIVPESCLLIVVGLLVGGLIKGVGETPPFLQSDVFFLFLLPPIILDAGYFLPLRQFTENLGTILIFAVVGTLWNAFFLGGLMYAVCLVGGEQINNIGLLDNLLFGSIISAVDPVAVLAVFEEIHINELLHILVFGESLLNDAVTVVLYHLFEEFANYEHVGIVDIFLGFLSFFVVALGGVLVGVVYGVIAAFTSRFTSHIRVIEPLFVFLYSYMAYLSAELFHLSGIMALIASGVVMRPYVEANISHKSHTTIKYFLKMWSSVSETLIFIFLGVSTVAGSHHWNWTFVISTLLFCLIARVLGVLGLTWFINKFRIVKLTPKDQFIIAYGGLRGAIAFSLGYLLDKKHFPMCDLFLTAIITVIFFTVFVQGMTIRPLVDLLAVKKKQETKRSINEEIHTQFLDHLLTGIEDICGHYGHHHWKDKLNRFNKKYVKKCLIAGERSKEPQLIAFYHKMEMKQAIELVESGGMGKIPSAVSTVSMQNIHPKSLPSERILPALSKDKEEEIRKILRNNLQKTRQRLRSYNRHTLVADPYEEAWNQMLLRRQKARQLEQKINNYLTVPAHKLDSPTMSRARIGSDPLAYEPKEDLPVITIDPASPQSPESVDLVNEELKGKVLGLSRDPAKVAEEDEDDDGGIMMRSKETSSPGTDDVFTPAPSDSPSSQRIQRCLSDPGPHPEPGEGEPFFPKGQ

In the first series the target is T1, urokinase from human kidney cells (human uPA) (Homo sapiens, UniProt P00749).
T1 construct: low molecular weight active human uPA; purchased Sigma-Aldrich U4010; host or cells: human kidney cells
As to the kind of experiment: uPA inhibition assay (fluorescence-based, purified enzyme). To be noted: purified enzyme, Z-Gly-Gly-Arg-AMC substrate; number in parentheses after value; read-out: uPA IC50. Format: biochemical.
On to `N=C(N)NC(=O)c1nc(-c2cncnc2)c(N2CCCCCC2)nc1N` [compound 24], for which the half-maximal inhibitory concentration (IC50) is 175 nM and < 300 nM.

For the compound `N=C(N)NC(=O)c1nc(-c2cc3cc(F)cc(F)c3o2)c(N)nc1N` [compound 16], the IC50 came out at 609 ± 26 nM.

Regarding `N=C(N)NC(=O)c1nc(-c2cc3ccccc3o2)c(N2CCOCC2)nc1N` [compound 36], the half-inhibitory concentration (IC50) was 797 ± 15 nM.

For `N=C(N)NC(=O)c1nc(-c2cc3ccccc3o2)c(NC2CCCC2)nc1N` [compound 34], the concentration for half-maximal inhibition (IC50) turned out to be 5860 nM.

As for `N=C(N)NC(=O)c1nc(-c2cc3cc(Cl)ccc3o2)c(N)nc1N` [compound 10], the half-inhibitory concentration (IC50) was found to be 940 ± 59 nM.

The same series, now with this note: uPA over NHE1.
Take `N=C(N)NC(=O)c1nc(-c2cncnc2)c(N2CCCCCC2)nc1N` [compound 24]: the uPA selectivity ratio is 1.5.

A further series addresses T2, NHE1 (Homo sapiens, UniProt P19634).
T2 construct: endogenous in cells; host or cells: MDA-MB-231
As to the kind of experiment: Plate-based NHE1 inhibition assay (BCECF pHi recovery, 96-well plate reader). Format: cell-based. To be noted: 1 μM, MDA-MB-231 cells, plate reader. As to the method: To perform NHE1 screening with increased throughput, we adapted the conventional cuvette-based NHE1 activity assay to a simple new 96-well plate format using MDA-MB-231 cells that were compatible with common laboratory fluorescence plate readers (see Section 4 for details).
Culture media were removed and replaced with 200 µL 0.2% FBS-containing media with incubation for 3–4 h to stimulate NHE1 activity, followed by incubation for 30 min in the presence of 5 µM 2′,7′-bis(carboxyethyl)-5(6)-carboxyfluorescein-acetoxymethyl ester (BCECF-AM, cat #ab143463, Abcam, Cambridge, United Kingdom). Cells were then washed with 100 µL/well Na^+-free acid-load buffer: 10 mM NH4Cl, 1.8 mM CaCl2, 90 mM N-methyl-D-glucamine (from 1 M stock titrated to pH 7.4 with HCl), 5 mM glucose, 15 mM HEPES, 5 mM KCl, 1 mM MgCl2 (pH 7.5, adjusted with KOH), and incubated at 37 °C for a further 30 min. Acid-load buffer was removed and replaced with Na^+-containing assay buffer: 100 mM NaCl, 1.8 mM CaCl2, 5 mM glucose, 15 mM HEPES, 5 mM KCl, 1 mM MgCl2 containing serial dilution of each compound or DMSO vehicle, and changes in fluorescence were read immediately using a BMG Labtech POLARstar OMEGA (BMG Labtech GmbH, Offenburg, Germany) plate reader according to the parameters in Table S1. Compounds were tested at n = 3 technical replicates per concentration per plate. BCECF-AM-free cells were treated with matched concentrations of each compound to correct for intrinsic fluorescence. DMSO was present in all wells at a final concentration of 1% v/v. Inhibition of NHE1-mediated pHi recovery was determined by ratiometric calculation of the change in blank-corrected pH-sensitive fluorescence divided by the isobestic fluorescence for each well over time. […] (0% activity) controls present on each plate. IC50 values were determined through fitting of Log-10 transformed data using the “log(inhibitor) versus normalised response–variable slope” non-linear function in GraphPad PRISM v8.0 software package (GraphPad Software, San Diego, CA, USA).
In the case of `N=C(N)NC(=O)c1nc(Cl)c(N)nc1N` [AML, Amiloride, reference compound], the inhibition at 1 µM was determined as 7%.

The compound `N=C(N)NC(=O)c1nc(-c2cncnc2)c(N2CCCCCC2)nc1N` [compound 24] gave an inhibition at 1 µM of 80%.

`N=C(N)NC(=O)c1nc(-c2cc3cc(F)cc(F)c3o2)c(N)nc1N` [compound 16]: the inhibition at 1 µM is 7%.

Take `N=C(N)NC(=O)c1nc(-c2cc3ccccc3o2)c(N2CCOCC2)nc1N` [compound 36]: the inhibition at 1 µM was determined as 29%.

`N=C(N)NC(=O)c1nc(-c2cc3ccccc3o2)c(NC2CCCC2)nc1N` [compound 34]: the inhibition at 1 µM amounted to 0%.

In turn, `N=C(N)NC(=O)c1nc(-c2cc3cc(Cl)ccc3o2)c(N)nc1N` [compound 10] showed an inhibition at 1 µM of 0%.

The series is the same for the next values; noted with them: 10 μM, MDA-MB-231 cells, plate reader.
Compound `N=C(N)NC(=O)c1nc(Cl)c(N)nc1N` [AML, Amiloride, reference compound] came in with an inhibition at 10 µM of 64%.

As to `N=C(N)NC(=O)c1nc(-c2cncnc2)c(N2CCCCCC2)nc1N` [compound 24], 10 µM produced 96% inhibition.

Turning to `N=C(N)NC(=O)c1nc(-c2cc3cc(F)cc(F)c3o2)c(N)nc1N` [compound 16], testing at 10 µM gave an inhibition of 52%.

Regarding `N=C(N)NC(=O)c1nc(-c2cc3ccccc3o2)c(N2CCOCC2)nc1N` [compound 36], the inhibition at 10 µM was determined as 81%.

As for `N=C(N)NC(=O)c1nc(-c2cc3ccccc3o2)c(NC2CCCC2)nc1N` [compound 34], at 10 µM the inhibition was 0%.

`N=C(N)NC(=O)c1nc(-c2cc3cc(Cl)ccc3o2)c(N)nc1N` [compound 10]: the inhibition at 10 µM is 62%.

The same series, now with this note: plate-reader value as printed in nM in text; read-out: NHE1 IC50.
Regarding `N=C(N)NC(=O)c1nc(-c2cncnc2)c(N2CCCCCC2)nc1N` [compound 24], the IC50 was 266 nM and < 300 nM.

A further series deals with T2, NHE1. As to the kind of experiment: Cuvette-based NHE1 inhibition assay. Type of series: cell-based. To be noted: MDA-MB-231 cells, cuvette assay; read-out: NHE1 Cuvette IC50. How it is done:
Performed as described in [53]. Briefly, MDA-MB-231 cells were grown to ~80–90% confluence on glass coverslips. Then, 3 µM BCECF were loaded into cells in 400 µL serum-free medium and the fluorescence was measured using a PTI Deltascan spectrofluorometer (Horiba Ltd., Kyoto, Japan). […] A calibration curve of pHi fluorescence was performed for every sample using nigericin [55]. […] IC50 values were determined through fitting of Log-10 transformed data using the “log(inhibitor) versus normalised response–variable slope” non-linear function in GraphPad PRISM v8.0 software package (GraphPad Software, San Diego, USA).
As to `N=C(N)NC(=O)c1nc(-c2cncnc2)c(N2CCCCCC2)nc1N` [compound 24], the half-maximal inhibitory concentration (IC50) is 397 nM.

Test system in a further series: not listed separately
As to the kind of experiment: Cell viability (cytotoxicity) assay. Type of series: cell-based. To be noted: human, MDA-MB-231 cells, 48 h treatment. How it is done: On the day of treatment, respective compounds were serially diluted using a semi-logarithmic dilution series from 20 mM stocks in neat DMSO into DMEM-high glucose media (10% v/v FBS) in a separate 96-well plate and under sterile conditions. Thereafter, 10 μL of the diluted compounds at their respective concentrations (n = 4) were added to the cells. […] Vehicle media blanks or drug blanks were also included to correct for inherent colour of the compounds and phenol red-containing media. Following 48 h treatment, 20 μL CellTitre 96® Aqueous One Solution Cell Proliferation Assay (Promega, Madison, USA) was added to each well, plates were incubated for 2 h, and absorbance was measured at 490 nm using a SpectraMax Plus 384-well plate reader (Molecular Devices LLC, San Jose, USA) and Softmax PRO v7.0 software. Blank-corrected data were analysed and graphed using GraphPad PRISM v8.0 software (GraphPad Software, San Diego, CA USA).
Consider `N=C(N)NC(=O)c1nc(Cl)c(N)nc1N` [AML, Amiloride, reference compound], for which the IC50 at 48 h was > 100000 nM.

`N=C(N)NC(=O)c1nc(-c2cncnc2)c(N2CCCCCC2)nc1N` [compound 24]: the IC50 at 48 h was > 100000 nM.

`N=C(N)NC(=O)c1nc(-c2cc3cc(F)cc(F)c3o2)c(N)nc1N` [compound 16] had an IC50 at 48 h of 4700 nM.

The compound `N=C(N)NC(=O)c1nc(-c2cc3ccccc3o2)c(N2CCOCC2)nc1N` [compound 36] yielded an IC50 at 48 h of 36700 nM.

Take `N=C(N)NC(=O)c1nc(-c2cc3ccccc3o2)c(NC2CCCC2)nc1N` [compound 34]: the half-maximal inhibitory concentration (IC50) at 48 h amounted to 6200 nM.

The compound `N=C(N)NC(=O)c1nc(-c2cc3cc(Cl)ccc3o2)c(N)nc1N` [compound 10] yielded an IC50 at 48 h of 4400 nM.

Another series deals with T3, MDA-MB-231 cell-surface uPA (HMW human active uPA bound to uPAR) (Homo sapiens, UniProt P00749).
T3 construct: pre-incubated with active high molecular weight (HMW) uPA; purchased Molecular Innovations HTC-UPA; host or cells: added to MDA-MB-231 cells (endogenous uPAR)
As to the kind of experiment: Cell-surface uPA activity assay. Type of series: cell-based. To be noted: average ± SEM from four independent assays. As to the method:
Having identified non-cytotoxic compounds with the desired target selectivity profiles, we then sought to confirm their uPA inhibitory activities in a more physiologically relevant, whole-cell assay. To this end, the fluorogenic biochemical assay was modified to allow measurement of cell-surface uPA activity in MDA-MB-231 cells, which are known to express uPAR [38, 39]. To maximise enzymatic activity, the cells were pre-incubated with active high molecular weight (HMW) uPA to saturate unoccupied uPAR present at the cell surface.
MDA-MB-231 cells were seeded into Greiner CELLSTAR black 96-well plates (Greiner Bio-one, cat #655079) at density 10,000 cells/well in a volume of 100 µL media and cultured for 48 h. On the day of the experiment, cell culture media were removed via shakeout, followed by washing with 100 µL 1 × Dulbecco’s PBS/1 mM CaCl2/1 mM MgCl2/0.1% protease-free bovine serum albumin/pH 7.4 wash buffer. Cells were then incubated in the presence of 25 nM HMW human active uPA (Molecular Innovations, San Diego, CA, USA, SKU: HTC-UPA) in wash buffer for 30 min at RT. Unbound HMW uPA was removed via washing twice with 100 µL wash buffer. […] Plates were read immediately following the addition of substrate using a POLARstar OMEGA fluorescence plate reader (BMG Labtech GmbH, Offenburg, Germany) according to the parameters in Table S1.
Compound `N=C(N)NC(=O)c1nc(-c2cncnc2)c(N2CCCCCC2)nc1N` [compound 24] yielded a half-maximal inhibitory concentration (IC50) of 130 ± 10 nM.

The subject of the next series is NHE1.
Experiment: not given
To be noted: read-out: NHE1 IC50 (literature); cited from earlier work.
For `N=C(N)NC(=O)c1nc(Cl)c(N)nc1N` [AML, Amiloride, reference compound], the IC50 is […].

For a further series, the system named is ENaC.
Experiment: not given
To be noted: previously showed; cited from earlier work.
On to `N=C(N)NC(=O)c1nc(-c2cncnc2)c(N2CCCCCC2)nc1N` [compound 24], for which the “ENaC activity in vitro” value was “no ENaC activity”.

Test system in another series: not given
Experiment: not given
To be noted: previously showed; cited from earlier work.
As for `N=C(N)NC(=O)c1nc(-c2cncnc2)c(N2CCCCCC2)nc1N` [compound 24], the “K+-sparing or diuretic effects in vivo” value was “no K^+-sparing or diuretic effects”.

In general, IC50 refers to the point on the concentration scale where inhibition reaches its midpoint. One may read the inhibition as how much of the control response was suppressed. A higher inhibition goes with a strong effect.

The values above are taken from paper PMC8000185 (International Journal of Molecular Sciences, 2021).
